{"source": "patent US20090062387A1", "about": "“METHOD OF PREVENTING NEPHROCALCINOSIS” (priority 2007, published 2009)", "system": "Sprague-Dawley rats", "assay": "Citrate in rats with ischemia/reperfusion injury or sham operation on a high phosphate diet with intermittent dehydration", "assay_type": "in vivo, rat", "details": "day 60", "description": "A total of 48 male and female Sprague-Dawley rats (150-200 g body weight at start of experiment) were divided in eight groups (A to H) containing 6 animals each (Table 1). On day 1 of the experiment groups A, B, E and F got 30 minutes of bilateral renal ischemia reperfusion injury, while control groups C, D, G and H were sham operated (12) (Table 1). The rats were given 48 hours to recover and BUN and serum creatinine levels were then determined.\nOn day 3 all groups (A to H) were put on a high phosphorus diet (NIH-07 diet, see reference #6) for 60 days. All groups were dehydrated for 8 hours once a week. While groups B, D, F and H received citrate (2% wt) in their drinking water, the other groups had access to regular tap water, except during periods of dehydration. As rats typically consume a daily average of 10 ml of water per 100 g of body weight, each rat of groups B, D, F and H received an approximate daily dosage of 2 g of citrate per kg of body weight.\nOn day 30 arterial blood samples were collected for pH, BUN and serum creatinine measurements.\nOn day 60 all animals were sacrificed. Arterial blood samples were collected for serum pH, phosphorus, BUN and creatinine measurements. Bladder urine samples were collected for pH measurements. Kidneys were longitudinally dissected, formalin fixed and paraffin embedded for generation of light microscopic sections. Additional paraffin embedded tissue sections were stained with “von Kossa” stain for calcium crystal identification and LM tissue sections were scored for acute tubular injury as described elsewhere.\nStatistically significant differences between experimental groups were determined using Bonferroni t-tests and analysis of variance."}
{"smiles": "O=C(O)CC(O)(CC(=O)O)C(=O)O", "note": "[citrate]", "values": [{"measurement": "Decrease of serum phosphorus levels", "setting": "all groups (male/female, I/R or sham), high phosphate diet, citrate in drinking water", "result": 30, "unit": "%"}, {"measurement": "Effect on serum pH", "setting": "all study groups", "result": "did not have a significant effect"}, {"measurement": "Effect on urine pH", "setting": "all study groups", "result": "did not have a significant effect"}, {"measurement": "Histology: tubular injury, casts and calcium phosphate crystals", "setting": "female I/R rats with citrate supplementation", "result": "focal tubular dilation but no casts and no calcium phosphate crystals"}, {"measurement": "Histology: tubular morphology", "setting": "female sham operated rats, without vs with citrate", "result": "no significant difference in tubular morphology"}, {"measurement": "Histology: morphologic changes of ATN", "setting": "male I/R rats with citrate supplementation", "result": "markedly reversed"}, {"measurement": "Serum BUN levels (renal function)", "setting": "male and female rats with I/R, high phosphate diet, citrate 2% wt in drinking water", "result": "returned BUN levels to near control values"}, {"measurement": "Histology: tubular injury and cast formation", "setting": "male sham operated rats with citrate supplementation", "result": "markedly decreased tubular injury and cast formation"}]}
